Assay results published in ChEMBL document CHEMBL2057160, “Experimental and 'in silico' analysis of the effect of pH on HIV-1 protease inhibitor affinity: implications for the charge state of the protein ionogenic groups” (Bioorg Med Chem, 2012).

Key:
Protease [1] = biological target: T1, Protease (Human immunodeficiency virus 1, UniProt Q9YQ12); assay: Binding affinity to Human immunodeficiency virus 1 protease by SPR biosensor interaction analysis at pH 4.1
Protease [2] = biological target: T1, Protease; assay: Binding affinity to Human immunodeficiency virus 1 protease by SPR biosensor interaction analysis at pH 5.1
Protease [3] = biological target: T1, Protease; assay: Binding affinity to Human immunodeficiency virus 1 protease by SPR biosensor interaction analysis at pH 7.4

T1 sequence (Q9YQ12 whole entry): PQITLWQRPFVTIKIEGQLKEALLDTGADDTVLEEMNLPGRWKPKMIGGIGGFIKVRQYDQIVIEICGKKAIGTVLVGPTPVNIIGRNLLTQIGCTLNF

Structure (SMILES)	Kd (Protease [1]) [nM]	Kd (Protease [2]) [nM]	Kd (Protease [3]) [nM]
O=C1N(Cc2ccc(CO)cc2)[C@H](COc2ccccc2)[C@H](O)[C@@H](O)[C@@H](COc2ccccc2)N1Cc1ccc(CO)cc1	1.83	1.84	6.95
O=C(N[C@H]1c2ccccc2C[C@H]1O)[C@H](OCc1ccccc1)[C@H](O)[C@@H](O)[C@@H](OCc1ccccc1)C(=O)N[C@H]1c2ccccc2C[C@H]1O	1.14	1	13.9
Cc1c(O)cccc1C(=O)N[C@@H](CSc1ccccc1)[C@H](O)CN1C[C@H]2CCCC[C@H]2C[C@H]1C(=O)NC(C)(C)C	37.6	2.99	3.4

More lines, in order of falling Kd (Protease [1]), values ahead:

Kd (Protease [1]) [nM]	Kd (Protease [2]) [nM]	Kd (Protease [3]) [nM]	Structure (SMILES)
208	759	8150	CC(=O)N[C@H](C(=O)N[C@H](C(=O)N[C@@H](CC(C)C)[C@@H](O)CC(=O)N[C@@H](C)C(=O)N[C@@H](CC(C)C)[C@@H](O)CC(=O)O)C(C)C)C(C)C [ACETYLPEPSTATIN]
2.97	3	10.8	CNC(=O)[C@@H](NC(=O)[C@H](OCc1ccccc1)[C@H](O)[C@@H](O)[C@@H](OCc1ccccc1)C(=O)N[C@H](C(=O)NC)C(C)C)C(C)C
